Source: patent US5691338A, “1,2-dithiole-3 thiones for the treatment of reverse transcriptase-dependent viral infections” (priority 1995, dated 1997)
“Also recorded” adds a separate entry of the source. Read-outs that look alike come from different tables or passages of the source.

Columns and labels:
[1] = test system: glutathione levels (GSH) in H9 cells; assay: Elevation of glutathione (GSH) levels in H9 cells; assay type: cell-based, human; settings: for fold induction at 30 µM / fold induction at 60 µM / fold induction at 120 µM: Homo sapiens, read-out: Glutathione levels, treated to control value
Procedure: Five ml of medium was added to T-25 flasks and DMSO containing tests compounds were added to a final concentration of 0.1%. Control medium contained 0.1% DMSO. After the drugs were added, 5×10^6 cells in 5 ml of medium was added to each T-25 flask. The cells were grown at 37° C. in a humidified incubator supplemented with 5% CO2 until harvested (N=3 flasks/group). At the indicated times, cells were isolated by centrifugation (500×g×10 min) and were washed three times by adding 10 ml of ice-cold DPBS, mixing, and centrifuging in a refrigerated centrifuge (500×g×10 min) to isolate the cell pellets. The cells were then lysed by the addition of 400 μl of ice-cold DPBS containing 0.5% Triton X-100 and vortexing. Supernatants were then isolated by centrifuging the lysates (5000×g×20 min). Samples were kept on ice or refrigerated until the reagents for QR or GSH spectrophotometric assays were added to the aliquoted microtiter plates. QR levels were determined by aliquoting 10 μl/well of supernatant in a 96-well plate and measuring the activity by the assay described by Prochaska and Santamaria (20) except that the final NADP^+ concentration was 200 μM (21). Samples were assayed in quadruplicate, and dicoumarol inhibitable-rates (which generally represented less than 5% of the total rate) were also measured. Spectrophotometric blanks contained 10 μl of DPBS with 0.5% Triton X-100. For the GSH assay, 300 μl of sample was placed in a centricon-10microconcentrator and centrifuged (5000×g×45 min) until enough ultrafiltrate could be collected. 50 μl/well of sample in quadruplicate was placed in a 96 well "half-area" plate after which 20 μl of 1 mM Ellman's reagent dissolved in DPBS was added. The yellow color (22) developed within 5 min and was scanned with a uvmax microtiter scanner (Palo Alto, Calif.) at 405 nm. Spectrophotometric blanks contained 50 μl DPBS with 0.5% Triton X-100 and 20 μl of 1 mM Ellman's reagent in DPBS. The optical densities of the specimens were calibrated to a GSH standard curve. Protein contents were determined in 3 ml cuvettes by the Bradford method (23). The protein content in the ultrafiltrates employed for GSH determinations were negligible (<0.01 mg/ml).

H9 cells = assay: Cytotoxicity in H9 cells by trypan blue exclusion; assay type: cell-based, human; settings: concentrations up to 120 μM, H9 cells
Procedure: The effects for test compounds were assessed by means of both IFA and p24 release. In general, the following protocol was followed: H9 cells were infected with HIV-1 at 1000 50% infective doses of viruses/10^6 cells. Virus was allowed to adsorb for 1 h, after which unadsorbed virus was removed by centrifugation. The cells were resuspended and washed twice with PBS (without Ca^+2 or Mg^+2 salts) and centrifuged to collect the cell pellet (150×g×10 min). Cells were suspended in fresh medium and added at a final cell density of 500,000 cells/ml in a 96-well plate with media containing 0.1% DMSO and various concentrations of test compounds. The cells were re-fed freshly prepared media containing 0.1% DMSO±test compounds on day four (for preinduction experiments, cells were exposed to inducers on days -2, 0, and +4 days relative to infection). After seven days, cells were examined for cytoxicity by trypan blue exclusion, the degree of infection with HIV-1 by IFA, and the supernatants were assayed for p24 levels according to the manufacturer's directions. The IFA procedure can be summarized as follows: The cells were washed twice in PBS and were placed in 5 mm 12-well slides. After allowing the slides to dry and fixing the cells with acetone for 5 min, 10 μl of HIV-1 positive serum in 40 μl PBS was added to each well and allowed to incubate at 37° C. for 30 min. After incubation, the slides were washed twice with PBS and incubated at 37° C. for 30 min with 2.5 μl goat anti-human IgG-fluorescein isothiocyanate conjugate in 50 μl PBS containing 0.01% Evans Blue per well. The slides were then washed twice with PBS, dried, and mounted with 50% glycerol in PBS, and scored for the percentage of fluorescent cells by fluorescent microscopy.

[2] = molecular target: T1, HIV-1 reverse transcriptase (RT) (Human immunodeficiency virus type 1 group M subtype B, UniProt P04585); assay: Time-dependent (irreversible) inhibition of HIV-1 reverse transcriptase after preincubation; assay type: biochemical
T1 construct: Recombinant HIV-1 reverse transcriptase (RT) was obtained from Worthington (Freehold, N.J.); purchased Worthington (Freehold, N.J.)
Procedure: FIG. 6. […] RT was preincubated for the times indicated with oltipraz dissolved in DPBS containing 1 mg/ml bovine serum albumin, 0.13% DMSO, and either 4 μM TTP or 5 μg/ml poly(A):2.5 μg/ml oligo(dT). After incubation, 10 μl aliquots in triplicate were added to 25 μl of a reaction cocktail containing 4 μM TTP, 5 μg/ml poly(A), and 2.5 μg/ml oligo(dT) and assayed for TTP incorporation into DNA over 30 min. as described by Flexner, et al. (25). The insets are Kitz-Wilson transformations (41).
Reverse transcriptase assays were performed as described by Flexner, et al. (25) using recombinant HIV-1 RT as the source of enzyme. Dilutions and assay were carried out in 96-well "half-area" plates. The enzyme with various concentrations of test compounds were dissolved in DPBS containing 1% w/v BSA and diluted in 50 μl volumes; 10 μl aliquots in triplicate were transferred to another plate for the enzyme assay. The reactions were initiated by the addition of 25 μl/well of buffer containing 50 mM Tris.cndot.Cl (pH 8.0), 75 mM KCl, 1 mM dithiothreitol, 2 mM MgCl2, 5 μg/ml poly(A), 2.5 μg/ml oligo (dT), 10 μCi/ml ^32 p TTP with or without unlabeled TTP. […] TTP incorporation was measured by spotting 20 μl of the reaction cocktail onto DE81 paper, washing the paper with 4×5 min washes of 300 mM NaCl and 30 mM sodium citrate (pH 7.0), drying the paper, and counting the paper by liquid scintillation counting. The assays performed with oltipraz and 1,2-dithiole-3-thione contained 0.29% final concentration DMSO.

[3] = test system: HTLV-I reverse transcriptase; settings: MT-2 (HTLV-I-infected) cells, FIG. 7
Procedure: MT-2 is a lymphocytic cell-line that is transformed by, and is antigen positive for HTLV-I. HTLV-I can be detected in supernatants of MT-2 cultures by monitoring reverse transcriptase activity. Using the MT-2 system compounds that are inhibitors of HTLV-I reverse transciptase can be identified. MT-2 cells are washed and incubated in triplicate with various concentrations of the test compounds, positive drug controls, negative drug controls or media alone. A cell-line that is negative for HTLV-I, such as H9, is used as a negative reverse transcriptase control. After 72 hours of incubation, culture supernatants are harvested and tested for reverse transcriptase activity as described (25). Inhibition of reverse transcriptase activity is calculated by comparing the radioactive counts in the experimental compounds to the MT-2 non-drug controls. ED50's can be calculated for each compound.

Cc1c(-c2cnccn2)ssc1=S [compound 11, 4-methyl-5-(2-pyrazinyl)-1,2-dithiole-3-thione]
Glutathione Levels ([1]; 24 h, 30 μM): 62.0 ± 2.0 nmol/mg | Glutathione Levels ([1]; 24 h, 60 μM): 83.5 ± 1.7 nmol/mg | Glutathione Levels ([1]; 24 h, 120 μM): 109 ± 28 nmol/mg | Glutathione Levels ([1]; 48 h, 30 μM): 52.7 ± 2.9 nmol/mg | Glutathione Levels ([1]; 48 h, 60 μM): 68.0 ± 2.9 nmol/mg | Glutathione Levels ([1]; 48 h, 120 μM): 79.7 ± 0.28 nmol/mg | Glutathione Levels ([1]; 72 h, 30 μM): 40.4 ± 4.7 nmol/mg | Glutathione Levels ([1]; 72 h, 60 μM): 47.3 ± 4.6 nmol/mg | Glutathione Levels ([1]; 72 h, 120 μM): 75.0 ± 8.6 nmol/mg | fold induction at 30 µM ([1]; H9, 24 h): 1.1 | fold induction at 60 µM ([1]; H9, 24 h): 1.48 | fold induction at 120 µM ([1]; H9, 24 h): 1.93 | fold induction at 30 µM ([1]; H9, 48 h): 1.52 | fold induction at 60 µM ([1]; H9, 48 h): 1.96 | fold induction at 120 µM ([1]; H9, 48 h): 2.28 | fold induction at 30 µM ([1]; H9, 72 h): 0.86 | fold induction at 60 µM ([1]; H9, 72 h): 1.01 | fold induction at 120 µM ([1]; H9, 72 h): 1.6 | elevation of GSH ([1]; dose- and time-dependent, H9 cells): able to elevate both GSH and QR levels | cytotoxicity (H9 cells): non-cytotoxic | irreversible inhibition of reverse transcriptase ([2]; kinetic behaviour): behaves kinetically as an irreversible inhibitor of RT | Ki ([2]; preincubation with TTP, experiment of FIG. 6, Kitz-Wilson): 15.6 µM | RT inactivation in the presence of poly(A):oligo(dT) ([2]; preincubation with poly(A):oligo(dT), FIG. 6 lower, listed as oltipraz): indistinguishable from rates of RT inactivation in its absence; also recorded: inconsistent with irreversible inhibition | Ki ([2]; preincubation, N=5 independent experiments): 25.9 ± 3.4 µM | kinact ([2]; preincubation, N=5 independent experiments, read-out: k3 (limiting rate of inactivation) (converted)): 1.44e-05 s⁻¹ | kinact ([2]; read-out: k3 (limiting rate of inactivation), preincubation with TTP, experiment of FIG. 6, Kitz-Wilson): 2.33e-05 s⁻¹ | effect on levels of RT activity in media [3]: dose-dependent effect
